Data published in patent US20240410898A1, “METHOD FOR DETECTING PROTEIN HAVING CHANGES IN ENERGY STATE, OR AFFINITY OF LIGAND TO PROTEIN” (DALIAN INSTITUTE OF CHEMICAL PHYSICS, CHINESE ACADEMY OF …, priority 2022, published 2024).
pKd: −log10 of the molar value. Each block holds one compound with its values, some of them ahead of it.

Experiments:
[1] = system: metal ion-binding proteins in HeLa cell lysate; experiment: PELSA, zinc chloride-treated HeLa cell lysate; conditions: 30 μM zinc chloride
Protocol: After cell lysis following the procedure described in Example 1, the added EDTA was removed using Zeba Spin desalting columns (Thermo Fisher Scientific) through two rounds of protein desalting. A final concentration of 30 μM zinc chloride (Sigma, catalog number 450111-10G) was added to the 50 μL cell lysate, serving as the experimental group. Proteins meeting the criteria of −log 10Pvalue>3 and log 2FC<−0.5 were considered as proteins stabilized by Zn2+.

[2] = system: metal ion-binding proteins in HeLa cell lysate; experiment: PELSA, zinc chloride-treated HeLa cell lysate; conditions: −log 10Pvalue>6 and log 2FC>0
MAT2A and AKR1C2 = experiment: dimethyl labeling-based PELSA, MAT2A and AKR1C2; assay type: binding; conditions: 100 μM
MAT2A = biological target: T1, MAT2A (Homo sapiens, UniProt P31153); experiment: thermal shift assay with purified MAT2A; assay type: binding; conditions: purified protein
T1 construct: made in house
Description: (§1) HSP90 proteins consist of three domains: the N-terminal ATP-binding domain, the middle domain, and the C-terminal domain. […] This finding further supports the capability of PELSA to accurately identify protein regions with changes in energy state. In addition to known target proteins, PELSA also identified several off-target proteins. […] PRDX family proteins play a protective role by clearing ROS under oxidative stress conditions.

AKR1C2 = biological target: T2, AKR1C2 (Homo sapiens, UniProt P52895); experiment: thermal shift assay with purified AKR1C2; assay type: binding; conditions: purified protein
T2 construct: made in house
T2 sequence (P52895 1-323): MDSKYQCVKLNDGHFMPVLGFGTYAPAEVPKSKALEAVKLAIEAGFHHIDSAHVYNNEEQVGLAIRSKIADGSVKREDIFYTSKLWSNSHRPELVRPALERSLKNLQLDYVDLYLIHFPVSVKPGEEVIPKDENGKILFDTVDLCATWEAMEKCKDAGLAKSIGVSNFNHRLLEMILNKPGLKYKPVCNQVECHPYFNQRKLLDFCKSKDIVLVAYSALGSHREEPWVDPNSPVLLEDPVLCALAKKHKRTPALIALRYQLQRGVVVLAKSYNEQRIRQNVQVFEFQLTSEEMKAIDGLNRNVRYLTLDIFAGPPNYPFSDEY
Description: as §1

ERBB2 [3] = biological target: T3, ERBB2 (Homo sapiens, UniProt P04626); experiment: PELSA, lapatinib-treated BT474 cell lysate; assay type: binding
[4] = system: CHEK2, SLK, RIPK2, and YES1; experiment: PELSA, lapatinib-treated BT474 cell lysate, off-target kinases; assay type: binding; conditions: increased lapatinib concentration (1 μM and above)
ERBB2 [5] = biological target: T3, ERBB2; conditions: cited from earlier work
PTGES2 [6] = biological target: T4, PTGES2 (Homo sapiens, UniProt Q9H7Z7); experiment: PELSA, lapatinib-treated BT474 cell lysate, non-kinase off-target; conditions: high concentrations of lapatinib
Protocol: (1) Take a dish of BT474 cells (approximately 5e7 cells) and resuspend them in 1 mL lysis buffer (PBS supplemented with 1% (v/v) protease inhibitor (Sigma, catalog number P8340-5 mL)). Freeze-thaw the mixture three times (freeze in liquid nitrogen for two minutes, thaw in a 37° C. water bath for two minutes, repeat three times) to obtain crude cell lysates. Centrifuge the crude cell lysates at 500 g, 4° C. for 10 minutes, and collect the supernatant as the cell lysate. Determine the protein concentration using the Pierce™ 660 nm Protein Assay (Thermo, USA).
(2) Adjust the protein concentration of the cell lysate to 1 mg/mL using cell lysis buffer. […]
(6) The above-mentioned peptide mixture was reconstituted in 20 μL of 0.1% (v/v) formic acid (Sigma, Catalog No. V900803) and subjected to LC-MS/MS analysis. Each sample was analyzed once using data-independent acquisition (DIA) mass spectrometry. The Spectronaut software was used to identify and quantify the peptides, providing information on the corresponding protein, the peptide's location within the protein, and its abundance in each sample.
(7) The abundance of peptides in the lapatinib-treated and untreated groups was statistically evaluated using Empirical Bayes t-test to determine the P-value and fold change for each peptide, representing the significance and magnitude of the peptide's abundance change upon lapatinib treatment. […]

PTGES2 [7] = biological target: T4, PTGES2; experiment: Western blotting of undigested PTGES2 after trypsin digestion; assay type: binding; set-up: collect the supernatant as the cell lysate; endogenous in cells; host or cells: BT474 cell lysate
Protocol: To validate the binding of PTGES2 and lapatinib, we performed Western blotting using a similar procedure and conditions as mentioned above, with the following modifications: The lysis buffer is PBS. After lysis, the resulting cell lysates were divided into 8 portions and treated with equal volumes of lapatinib at different final concentrations (lapatinib dissolved in DMSO), as well as DMSO, resulting in final lapatinib concentrations of 100 μM, 50 μM, 10 μM, 1 μM, 0.1 μM, 0.01 μM, 0.001 μM, and 0. The mixtures were incubated at room temperature (25° C.) for 30 minutes. After incubation, trypsin was added at a 1:40 protease-to-protein weight ratio, and the mixture was subjected to digestion at 37° C. for 1 minute. The digestion was terminated by heating the samples to 95° C., followed by the addition of ¼ volume of 5*loading buffer, and heating at 95° C. for another 5 minutes. Western blotting was employed to detect the undigested proteins. The gel was concentrated at 80 V for 20 minutes, and then separated at 120 V for 60 minutes. Transfer blotting was conducted at a constant current of 250 mA for 40 minutes. After blocking, the primary antibody against PTGES2 (Proteintech, USA) was added at a 1:800 dilution and incubated at room temperature for 1 hour. […] The undigested protein bands were quantified based on their intensities, using GAPDH as a reference protein. […]

[8] = system: LARS1, LARS2, GLUD1, and SENS2; experiment: PELSA, leucine-treated K562 cell lysate, known targets; assay type: binding; conditions: 5 mM leucine
Description: (§2) These findings indicate the ability of PELSA to differentiate between distinct binding sites on a single protein. […] SLC1A5 is a membrane protein comprising intracellular, transmembrane, and extracellular regions. The Na-dicarboxylate_symporter domain (residues 54-483), located in the extracellular region, plays a key role in amino acid transport.

SLC1A5 = biological target: T5, SLC1A5 (Homo sapiens, UniProt Q15758); experiment: PELSA, leucine-treated K562 cell lysate, SLC1A5; assay type: binding; conditions: 5 mM leucine
T5 construct: Protein-level volcano plot corresponding to 5 mM leucine-treated K562 cell lysates; endogenous in cells; host or cells: K562 cell lysate
T5 sequence (Q15758 1-541): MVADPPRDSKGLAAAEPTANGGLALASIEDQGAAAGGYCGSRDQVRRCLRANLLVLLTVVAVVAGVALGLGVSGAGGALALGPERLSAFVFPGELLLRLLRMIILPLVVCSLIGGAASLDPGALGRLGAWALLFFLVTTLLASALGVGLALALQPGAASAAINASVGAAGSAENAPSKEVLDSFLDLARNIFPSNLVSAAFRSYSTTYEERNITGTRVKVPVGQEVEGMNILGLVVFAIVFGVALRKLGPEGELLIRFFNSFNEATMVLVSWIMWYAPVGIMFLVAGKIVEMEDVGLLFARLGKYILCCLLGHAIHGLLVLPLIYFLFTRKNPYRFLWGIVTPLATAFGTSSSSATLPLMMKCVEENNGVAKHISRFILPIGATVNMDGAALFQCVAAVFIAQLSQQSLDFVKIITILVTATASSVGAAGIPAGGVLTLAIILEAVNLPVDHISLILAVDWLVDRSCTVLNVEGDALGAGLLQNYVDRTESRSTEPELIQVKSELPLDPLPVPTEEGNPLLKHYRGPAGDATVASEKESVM
Description: as §2

PPIP5K1 and PPIP5K2 = experiment: PELSA, leucine-treated K562 cell lysate, PPIP5K1/2; assay type: binding; conditions: 5 mM leucine, histidine phosphatase domains
Description: as §2

LARS1 = LARS1 (Homo sapiens, UniProt Q9P2J5); conditions: Kim S, et al., Cell Reports, 2021; read-out: dissociation constant, leucine-LARS1; cited from earlier work
[9] = system: kinases in K562 cell lysate; experiment: PELSA, staurosporine-treated K562 cell lysate; assay type: binding; conditions: 20 μM staurosporine
Description: (§3) We further compared the protein and peptide coverage depths of LiP-Quant, TPP, and PELSA.

[10] = system: kinases in HeLa cell lysate; conditions: 20 μM staurosporine
Description: as §3

[11] = system: kinases in K562 and HeLa lysates
Description: as §3

[12] = system: kinases in HeLa cell lysates; conditions: kinase proportion ≥80%; cited from earlier work
[13] = system: kinases in K562 cell lysates; conditions: cited from earlier work
[14] = system: proteins containing the SH2 domain; experiment: pulldown experiment with Biotin-pYEEI, BT474 cell lysate; assay type: binding; conditions: 100 μM Biotin-pYEEI
Protocol: The pulldown experiment was conducted as follows: The cell lysate is from BT474 cells, and the cell lysis was performed as described in Example 1. […] Two additional 100 μL samples were treated with Biotin-pSEEI at a final concentration of 100 μM and Biotin-YEEI at a final concentration of 100 μM, respectively, serving as control groups. This process was repeated three times, and the samples were incubated with ligands at room temperature for 30 minutes. After incubation, 200 μL of avidin beads (Thermo, USA) were added to each group and incubated overnight at 4° C. Subsequently, the beads were washed four times with a washing buffer (1% phosphatase inhibitor, and 0.5% NP40 in PBS), followed by four washes with a cell lysis buffer (1% phosphatase inhibitor in PBS solution). The proteins were eluted by adding 100 μL of HEPES buffer (pH 8.2) containing 8M guanidine hydrochloride, and the elution step was repeated twice. The eluted proteins were alkylated by adding 10 mM TCEP and 40 mM CAA, followed by heating at 95° C. for 5 minutes. The eluted protein solution was transferred to an ultrafiltration unit and centrifuged at 14,000 g for 30 minutes to remove the buffer. The ultrafiltration membrane was washed twice with 200 μL of a 10 mM ammonium bicarbonate (NH4HCO3) buffer. […]

PTPN11 = PTPN11 (Homo sapiens, UniProt Q06124); experiment: PELSA compared with LiP-MS, SHP099-treated HeLa cell lysate; assay type: binding
[15] = system: proteins of Escherichia coli; conditions: Piazza I et al., Cell, 2018; cited from earlier work

T3 sequence (P04626 23-1255): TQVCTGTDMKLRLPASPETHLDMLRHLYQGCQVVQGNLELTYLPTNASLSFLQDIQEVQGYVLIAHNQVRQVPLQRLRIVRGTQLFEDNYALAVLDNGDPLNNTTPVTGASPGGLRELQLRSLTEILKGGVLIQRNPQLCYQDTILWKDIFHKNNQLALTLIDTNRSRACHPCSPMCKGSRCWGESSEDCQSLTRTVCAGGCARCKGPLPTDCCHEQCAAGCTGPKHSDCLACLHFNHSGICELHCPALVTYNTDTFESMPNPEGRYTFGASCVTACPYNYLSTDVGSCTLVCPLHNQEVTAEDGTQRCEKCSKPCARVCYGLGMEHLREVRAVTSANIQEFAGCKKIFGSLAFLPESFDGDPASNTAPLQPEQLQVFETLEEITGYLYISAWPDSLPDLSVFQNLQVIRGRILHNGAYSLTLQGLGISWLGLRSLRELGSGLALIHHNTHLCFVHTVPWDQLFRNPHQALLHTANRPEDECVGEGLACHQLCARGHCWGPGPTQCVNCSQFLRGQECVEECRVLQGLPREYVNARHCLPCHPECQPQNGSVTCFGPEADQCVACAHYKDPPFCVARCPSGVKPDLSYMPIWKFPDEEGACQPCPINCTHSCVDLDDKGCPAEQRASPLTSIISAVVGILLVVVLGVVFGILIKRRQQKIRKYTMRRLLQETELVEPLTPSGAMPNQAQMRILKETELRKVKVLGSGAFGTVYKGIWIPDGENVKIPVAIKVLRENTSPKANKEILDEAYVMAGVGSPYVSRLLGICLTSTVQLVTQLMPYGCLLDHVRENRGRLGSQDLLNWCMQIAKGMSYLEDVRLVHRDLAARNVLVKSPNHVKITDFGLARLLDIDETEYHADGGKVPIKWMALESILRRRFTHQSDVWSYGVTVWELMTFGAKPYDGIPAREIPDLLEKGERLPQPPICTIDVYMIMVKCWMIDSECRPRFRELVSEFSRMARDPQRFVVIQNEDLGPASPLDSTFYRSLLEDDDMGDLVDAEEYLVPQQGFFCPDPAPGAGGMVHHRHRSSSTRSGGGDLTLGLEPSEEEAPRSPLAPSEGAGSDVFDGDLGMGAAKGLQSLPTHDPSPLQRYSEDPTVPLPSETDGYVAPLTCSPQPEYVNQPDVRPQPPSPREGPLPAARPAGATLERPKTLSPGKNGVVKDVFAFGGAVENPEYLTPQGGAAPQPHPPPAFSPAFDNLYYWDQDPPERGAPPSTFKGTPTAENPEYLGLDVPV
T4 sequence (Q9H7Z7 whole entry): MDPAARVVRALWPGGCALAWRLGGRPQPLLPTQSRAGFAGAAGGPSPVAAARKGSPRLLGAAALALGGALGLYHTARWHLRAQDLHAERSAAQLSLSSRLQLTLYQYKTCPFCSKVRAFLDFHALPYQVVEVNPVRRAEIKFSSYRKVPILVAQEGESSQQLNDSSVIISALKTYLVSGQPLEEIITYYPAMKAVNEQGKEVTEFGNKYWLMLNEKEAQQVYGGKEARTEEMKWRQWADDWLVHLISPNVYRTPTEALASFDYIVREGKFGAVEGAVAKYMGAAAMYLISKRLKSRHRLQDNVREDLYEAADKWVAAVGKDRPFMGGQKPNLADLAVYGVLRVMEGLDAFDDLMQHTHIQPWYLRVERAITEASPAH
T1 sequence (P31153 whole entry): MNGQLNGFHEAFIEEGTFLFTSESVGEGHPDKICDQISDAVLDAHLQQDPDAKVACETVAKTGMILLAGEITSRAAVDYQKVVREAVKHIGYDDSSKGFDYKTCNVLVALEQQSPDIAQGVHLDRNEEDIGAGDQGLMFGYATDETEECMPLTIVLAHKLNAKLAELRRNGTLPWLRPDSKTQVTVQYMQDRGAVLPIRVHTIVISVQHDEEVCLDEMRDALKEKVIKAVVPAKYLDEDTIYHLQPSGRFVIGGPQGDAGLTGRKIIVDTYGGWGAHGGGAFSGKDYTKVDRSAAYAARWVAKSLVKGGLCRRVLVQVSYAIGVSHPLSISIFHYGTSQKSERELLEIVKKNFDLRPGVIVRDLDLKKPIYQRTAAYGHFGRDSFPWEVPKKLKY
Sequence of LARS1 (Q9P2J5 whole entry, species assumed): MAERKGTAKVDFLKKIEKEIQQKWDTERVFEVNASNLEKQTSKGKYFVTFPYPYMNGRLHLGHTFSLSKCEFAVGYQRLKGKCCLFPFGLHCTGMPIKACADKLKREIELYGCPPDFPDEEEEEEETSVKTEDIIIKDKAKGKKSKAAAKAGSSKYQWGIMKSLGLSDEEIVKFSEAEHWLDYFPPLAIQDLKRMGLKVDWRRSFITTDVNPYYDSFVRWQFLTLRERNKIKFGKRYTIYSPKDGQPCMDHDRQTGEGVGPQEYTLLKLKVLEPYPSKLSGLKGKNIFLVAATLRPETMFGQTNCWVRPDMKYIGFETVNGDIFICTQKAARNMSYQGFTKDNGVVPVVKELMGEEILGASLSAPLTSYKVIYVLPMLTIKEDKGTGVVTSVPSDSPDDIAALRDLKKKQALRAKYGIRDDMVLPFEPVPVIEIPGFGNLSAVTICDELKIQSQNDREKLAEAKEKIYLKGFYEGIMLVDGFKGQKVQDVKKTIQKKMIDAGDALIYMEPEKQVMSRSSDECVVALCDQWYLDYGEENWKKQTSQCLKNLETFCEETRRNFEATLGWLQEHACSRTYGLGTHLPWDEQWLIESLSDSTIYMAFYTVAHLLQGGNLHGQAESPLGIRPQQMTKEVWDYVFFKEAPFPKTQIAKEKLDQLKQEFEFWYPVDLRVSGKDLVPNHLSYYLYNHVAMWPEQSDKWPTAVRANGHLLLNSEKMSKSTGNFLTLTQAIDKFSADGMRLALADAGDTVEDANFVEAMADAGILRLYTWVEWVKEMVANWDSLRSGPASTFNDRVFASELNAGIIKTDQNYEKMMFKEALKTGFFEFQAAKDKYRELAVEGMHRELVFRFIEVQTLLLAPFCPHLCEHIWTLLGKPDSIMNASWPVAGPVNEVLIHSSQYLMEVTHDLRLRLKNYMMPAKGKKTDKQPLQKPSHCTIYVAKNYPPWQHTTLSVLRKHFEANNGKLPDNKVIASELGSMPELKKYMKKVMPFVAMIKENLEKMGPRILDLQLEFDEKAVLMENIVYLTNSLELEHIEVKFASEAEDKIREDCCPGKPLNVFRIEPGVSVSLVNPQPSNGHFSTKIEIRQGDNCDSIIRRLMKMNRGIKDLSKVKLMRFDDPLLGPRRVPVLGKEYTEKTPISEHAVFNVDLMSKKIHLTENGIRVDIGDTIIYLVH

Compound: [Cl-].[Cl-].[Zn+2] [Zn2+, zinc chloride]
- Zn2+-binding proteins containing zinc finger motifs [1]: 60
- stability of 26S proteasome regulatory subunits PSMC1-6 [1]: destabilization in the components of the 26S proteasome regulatory subunits
- stabilized Zn2+-binding proteins [1]: 112
- stabilized known Ca2+-binding proteins [1]: 25
- stabilized known Fe2+-binding proteins [1]: 15
- stabilized known Mg2+-binding proteins [1]: 20
- stabilized known Mn2+-binding proteins [1]: 9
- stabilized known binding proteins of other metal ions [1]: 6
- stabilized proteins that are known binding proteins of other metal ions [1]: 73
- stabilized proteins that are known metal ion-binding proteins [1]: 185
- number of proteins stabilized by Zn2+ ([1]; −log 10Pvalue>3 and log 2FC<−0.5): 280
- proportion of known metal ion-binding proteins among stabilized proteins ([1]; 19% in entire identified proteome): more than 66%
- stability of proteins containing IQ motifs [2]: destabilization in several proteins containing IQ motifs

- thermal melting temperature of MAT2A (MAT2A): significantly increased
- thermal melting temperature / stabilization of AKR1C2 (AKR1C2): significantly increased
Compound: CC(C)c1cc(-c2n[nH]c(=O)n2-c2ccc3c(ccn3C)c2)c(O)cc1O [ganetespib]
- off-target proteins MAT2A and AKR1C2 (MAT2A and AKR1C2): two previously-unreported off-target proteins of ganetespib, namely MAT2A and AKR1C2

Compound: CS(=O)(=O)CCNCc1ccc(-c2ccc3ncnc(Nc4ccc(OCc5cccc(F)c5)c(Cl)c4)c3c2)o1 [lapatinib]
- location of significantly altered ERBB2 peptides (ERBB2 [3]; 100 nM lapatinib, |log 2(fold change)|>0.3 & −log 10(P value)>2): only within or in close proximity to the kinase domain
- resistance to proteolysis of peptides within the kinase domain of ERBB2 (ERBB2 [3]; lapatinib 100 μM, 10 μM and 1 μM): more resistant to proteolysis
- energy state changes of other kinases [4]: energy state changes in several other kinases such as CHEK2, SLK, RIPK2, and YES1
- affinity of lapatinib to ERBB2 (ERBB2 [5]): approximately 9 nM
- energy state change of PTGES2 (PTGES2 [6]): exhibited changes in its energy state
- lapatinib concentration at which maximum PTGES2 protection was reached (PTGES2 [7]; Western blotting): 50 µM
- PTGES2 protected from digestion (Western blot band intensity) (PTGES2 [7]; lapatinib 0.001-100 μM, trypsin 1:40, 37° C. 1 minute): increasing amount of PTGES2 protein protected from digestion

Compound: CC(C)C[C@H](N)C(=O)O [leucine]
- energy state changes of LARS1, LARS2, GLUD1, SENS2 [8]: significant changes in the energy states
- energy state change of SLC1A5 (SLC1A5): significant changes in the energy state of SLC1A5
- stabilization of PPIP5K1 and PPIP5K2 (PPIP5K1 and PPIP5K2): stabilized PPIP5K1 and PPIP5K2
- pKd (LARS1): 4.02

Compound: CN[C@@H]1C[C@H]2O[C@@](C)([C@@H]1OC)n1c3ccccc3c3c4c(c5c6ccccc6n2c5c31)C(=O)NC4 [staurosporine]
- total number of target proteins identified [9]: 143
- total number of target proteins identified [10]: 135
- proportion of kinases among all target proteins ([11]; K562 and HeLa): 80%
- total staurosporine target proteins in the two cell lines ([11]; K562 and HeLa): 192
- significantly changed peptides located within or within 10 residues of kinase domains ([11]; both K562 and HeLa lysates): over 92%
- number of kinase targets identified by LiP-Quant [12]: 9
- number of kinase targets identified by TPP [13]: 53
- total number of target proteins identified by TPP [13]: 60

Compound: Phosphorylated tyrosine-glutamate-glutamate-isoleucine [pYEEI]
- SH2 domain proteins determined as pYEEI-binding proteins in pulldown [14]: none of the proteins containing the SH2 domain was determined as pYEEI-binding proteins

- number of SHP099-responsive PTPN11 peptides, PELSA relative to LiP-MS (PTPN11; 10 μM SHP099, HeLa cell lysate): 5.25 times
- response magnitude of PTPN11 peptides to SHP099, PELSA relative to LiP-MS (PTPN11; 10 μM SHP099, HeLa cell lysate): 6.4 times
Compound: SHP099
- fold change of PTPN11 peptide at the SHP099-binding site (PTPN11; 10 μM SHP099): exhibited fold changes exclusively in PELSA experiments

Compound: alpha-ketoglutarate [αKG]
- previously known αKG-binding proteins among LiP-MS targets [15]: 2
- target proteins identified by LiP-MS [15]: 34
